Patent US7411090B2, “Process for the recovery of citric acid” (A.E. Staley Manufacturing Company, priority 2003, dated 2008)

Assay: Extraction into non-amine (NA) solvent from solutions containing both glucose and citric acid
Assay type: physicochemical
Details: selectivity decreases with increase in distribution of citric into solvent phase
Description: The citric/glucose selectivity decreases with the increase in the distribution of citric into the solvent phase.

SMILES: O=C(O)CC(O)(CC(=O)O)C(=O)O [citric acid]
- citric/glucose selectivity of extraction into the NA solvent: selectively extracted
